Measurements taken from patent US11459295B2, “2-beta-naphthyl-acetic acid analogs as AKR1C3 inhibitors and methods of using same” (THE TRUSTEES OF THE UNIVERSITY OF PENNSYLVANIA, priority 2015, dated 2022).
Several values for one entry are separate records, joined by “and”; a condition that tells them apart may be missing. Identical values can stand only once.

What was measured:
AKR1C2 [1] = target: T1, AKR1C2 (Homo sapiens (Human), UniProt P52895); assay: S-tetralol oxidation assay, AKR1C2; assay type: biochemical; details: NADP+ dependent oxidation of S-tetralol, S-tetralol at Km; Table 1
Protocol: Enzyme Purification: Homogenous recombinant enzymes AKR1C1-4 were prepared and purified (Burczynski, et al., 1998, Biochemistry 37:6781-6790). Enzymes were purified to constant specific activity and their purity established by SDS-PAGE. All AKR enzymes were stored at −80° C. in 20 mM potassium phosphate buffer pH 7.0 containing 30% glycerol, 1 mM EDTA, and 1 mM β-mercaptoethanol. Under standard assay conditions, the specific activity of AKR1C1 for the NAD^+ dependent oxidation of 1-acenaphthenol (Sigma) was 2.0 μmol min^−1 mg^−1. The specific activities of AKR1C2 and AKR1C3 for the NAD^+ dependent oxidation of S-tetralol (Sigma) were 1.5 and 2.0 μmol min^−1 mg^−1, respectively, and the specific activity of AKR1C4 for the NAD^+ dependent oxidation of androsterone (Steraloids) was 0.3 μmol min^−1 mg^−1. The specific activities of AKR1C enzymes were determined by measuring the formation of NADH at 340 nm using a Beckman DU640 spectrophotometer. A typical assay solution contained 100 mM potassium phosphate pH 7.0, 2.3 mM NAD^+, 200 μM 1-acenaphthenol for AKR1C1, 3.0 mM Stetralol for AKR1C2 and 1C3, and 75 μM androsterone for AKR1C4, 4% acetonitrile (v/v). The mixtures were incubated at 25° C. (AKR1C1 and 1C4) or 37° C. (AKR1C2 and 1C3) for 3 min, followed by adding a serial dilution of enzyme solution to a final volume of 1 mL to initiate the reaction. After continuously monitoring for 5 min, the increase in UV absorption using different concentrations of enzyme were recorded to calculate the initial velocity of substrate oxidation and determine enzyme-specific activity.
the inhibitory potency of the individual compounds against the AKR1C isoforms was determined by monitoring the NADP^+ dependent oxidation of S-tetralol catalyzed by the AKR1C enzymes using substrate concentrations at their Km values in the presence and absence of varying concentration of the inhibitors (Adeniji, et al., 2012, J Med Chem 55:2311-2323). Reaction systems (200 μL) contained 100 mM potassium phosphate buffer (pH 7.0), 4% DMSO, 200 μM NADP^+, a serial dilution of compounds, S-tetralol, and AKR1C enzymes. […] The concentration of AKR1C1, 1C2, 1C3, and 1C4 was 111, 86, 95, and 552 nM, respectively. Reagents were mixed and incubated at 37° C. for 10 min followed by adding AKR1C enzymes to initiate the reaction. […] To determine the pattern of inhibition, five fixed concentrations of S-tetralol were used and four different concentrations of inhibitor were used and a gobal fit of the equations for COMP, NONCOMP and UNCOMP to the data was applied using Grafit.

AKR1C3 [2] = target: T2, AKR1C3 (Homo sapiens (Human), UniProt P42330); assay: S-tetralol oxidation assay, AKR1C3; assay type: biochemical
Protocol: Enzymes were purified to constant specific activity and their purity established by SDS-PAGE. All AKR enzymes were stored at −80° C. in 20 mM potassium phosphate buffer pH 7.0 containing 30% glycerol, 1 mM EDTA, and 1 mM β-mercaptoethanol. […] The specific activities of AKR1C enzymes were determined by measuring the formation of NADH at 340 nm using a Beckman DU640 spectrophotometer. […] The mixtures were incubated at 25° C. (AKR1C1 and 1C4) or 37° C. (AKR1C2 and 1C3) for 3 min, followed by adding a serial dilution of enzyme solution to a final volume of 1 mL to initiate the reaction. After continuously monitoring for 5 min, the increase in UV absorption using different concentrations of enzyme were recorded to calculate the initial velocity of substrate oxidation and determine enzyme-specific activity.
Reagents were mixed and incubated at 37° C. for 10 min followed by adding AKR1C enzymes to initiate the reaction. […] To determine the pattern of inhibition, five fixed concentrations of S-tetralol were used and four different concentrations of inhibitor were used and a gobal fit of the equations for COMP, NONCOMP and UNCOMP to the data was applied using Grafit.

COX-2 = COX-2 (Mus musculus, UniProt Q05769); assay: COX-2 inhibition; assay type: biochemical
AKR1C3 [3] = target: T2, AKR1C3; assay: AKR1C3 catalyzed reduction of Δ4-AD; assay type: biochemical; details: E.NADPH.I complex; read-out: Ki, competitive inhibition of AKR1C3 catalyzed reduction of Δ4-AD
Description: The ethyl acetate fraction was extracted and dried in vacuum.

COX-1 = COX-1 (Ovis aries (Sheep), UniProt P05979); assay: COX-1 assay (TMPD oxidation); assay type: biochemical, ram
Protocol: The purity of the enzyme was assessed by SDS-PAGE. […] Reagents were mixed and incubated at 25° C. for 5 min followed by adding a mixture of TMPD and arachidonic acid to initiate the reaction. Specific activity was determined based on the initial velocity of the reduction of PGG2 formed in the reaction.
The effect of the compounds on COX-1 activity was determined by a continuous colorimetric assay that monitored the oxidation of N, N, N, N-tetramethyl-1,4-phenylenediamine (TMPD) when coupled to the COX catalyzed formation of PGH2 from PGG2 using arachidonic acid as substrate. […] Reagents were mixed and incubated at 25° C. for 5 min followed by adding a mixture of TMPD and arachidonic acid to initiate the reaction.

AKR1C2 [4] = target: T1, AKR1C2; assay: AKR1C2 catalyzed NADPH dependent reduction of 5α-DHT; assay type: biochemical; details: 5α-DHT reduction, <100 μM concentrations
Protocol: Compounds were tested for their ability to inhibit the AKR1C3 catalyzed, reduction of [^3H]-Δ^4-AD and the AKR1C2 catalyzed reduction of [^3H]-5α-DHT. Compounds were incubated with purified recombinant enzyme and radiolabeled steroid in 100 mM phosphate buffer pH7.0 and 4% DMSO at 37° C. The reaction was initiated by the addition of 1 mM NADPH, aliquots were removed over time and subsequently quenched by the addition of ice cold ethyl acetate. The ethyl acetate fraction was extracted and dried in vacuum. Steroid reference standards and extracts were dissolved in 50 μl ethyl acetate and applied to LK6D Silica TLC plates (Whatman Inc., Clifton, N.J.). TLC plates were developed using a dichloromethane/ethyl acetate (80:20 v/v) solution and were scanned with a Bioscan System 200 plate reader (Washington, D.C.). The percentage of radioactivity in the product peak was calculated assuming that the combined radioactivity in the substrate and product peaks was 100%. Initial velocities were computed by converting the percentage of radioactivity in the product peak by the specific radioactivity of the starting material to generate pmoles/min.

AKR1C1 = AKR1C1 (Homo sapiens (Human), UniProt Q04828); assay: S-tetralol oxidation assay, AKR1C1; assay type: biochemical
LNCaP-AKR1C3 cells [5] = assay: Radiometric assay of androgen metabolism; assay type: cell-based; details: 100 nM Δ4-AD, 30 μM compound, 48 h
Protocol: LNCaP-AKR1C3 cells seeded at a density of 1.5×10^6 cells were plated in 6 well plates in CSS media. The cells were allowed to incubate for 24 h, after which the media was aspirated and fresh CSS media with 7.5 nM (1.26 μCi) of [^3H] Δ^4-AD and 92.5 nM of cold Δ^4-AD (to obtain a final concentration of 100 nM) was added in the presence and absence of 30 μM of compound 8a in each well. The cells were incubated for 48 h, after which time the media was collected for analysis (Byrns, et al., 2012, J. Steroid. Biochem. & Mol. Biol. 130:7-15). The media was extracted twice with cold ethyl acetate. In order to determine radioactivity of each phase, a portion of each fraction was added to Ultima Gold (Perkin Elmer Life Sciences) scintillation fluid and analyzed on a TriCarb 2100 (Packard Instruments, Perkin Elmer Life Sciences), all CPM counts were blank-adjusted and reported as corrected cpm. The aqueous phases were acidified to pH 6.5 with acetic acid and subjected to treatment with 400 U of E. coli β-glucuronidase at 37° C. for 24 h. The de-conjugated androgens were re-extracted as described elsewhere herein, dried in vacuum and re-dissolved in 100 μL ethyl acetate for separation on the multi-channel LK6D Silica TLC plates. Plates were developed using dichloromethane/ethyl acetate (80:20 v/v) and scanned on the BioScan 200 plate reader.

LNCaP-AKR1C3 cells [6] = assay: Western blot of Δ4-AD induced PSA expression; assay type: cell-based; details: 100 nM Δ4-AD, 30 μM compound
Protocol: LNCaP cells stably expressing AKR1C3 (LNCaP-AKR1C3 cells) (Byrns, et al., 2012, J. Steroid. Biochem. & Mol. Biol. 130:7-15) seeded at a density of 1.5×10^6 cells were plated in 6 cm dishes containing phenol red free RPMI-1640 media supplemented with 5% CDFBS, 1% Pen/Strep and 2 mM L-Glutamine (CSS media). The cells were incubated for 24 h after which media was aspirated and fresh CSS media containing 100 nM Δ^4-AD plus and minus inhibitors. The cells were incubated for 24 h after which they were harvested in RIPA lysis buffer supplemented with protease inhibitors at 4° C. Lysate protein concentration was determined by the Bradford assay using the BIORAD protein dye (Bio-Rad). The samples were subjected to electrophoresis on a 12% SDS-PAGE gel that was subsequently transferred to a nitrocellulose membrane. The membrane was probed with the appropriate antibodies as follows; anti β-tubulin (Millipore, #05-661) anti-PSA (Meridian Life Science, Inc., #K92110R). Blots were imaged using the ECL reagent (Pierce) and GelDoc XR+ System and Image Lab software (Bio-Rad).

[7] = NADP+ dependent oxidation of S-tetralol, S-tetralol at Km, Table 1
[8] = highest inhibitor concentration (100 μM) tested

T1 sequence (P52895 whole entry): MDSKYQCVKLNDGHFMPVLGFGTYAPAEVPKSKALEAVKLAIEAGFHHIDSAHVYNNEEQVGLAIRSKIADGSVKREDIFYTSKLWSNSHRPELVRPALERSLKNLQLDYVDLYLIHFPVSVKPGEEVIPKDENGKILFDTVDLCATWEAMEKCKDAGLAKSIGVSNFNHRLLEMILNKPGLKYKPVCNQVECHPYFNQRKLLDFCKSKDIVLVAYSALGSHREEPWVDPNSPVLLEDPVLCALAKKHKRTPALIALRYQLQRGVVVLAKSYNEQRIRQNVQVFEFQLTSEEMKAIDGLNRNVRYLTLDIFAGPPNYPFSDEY
COX-1, sequence (P05979 25-600): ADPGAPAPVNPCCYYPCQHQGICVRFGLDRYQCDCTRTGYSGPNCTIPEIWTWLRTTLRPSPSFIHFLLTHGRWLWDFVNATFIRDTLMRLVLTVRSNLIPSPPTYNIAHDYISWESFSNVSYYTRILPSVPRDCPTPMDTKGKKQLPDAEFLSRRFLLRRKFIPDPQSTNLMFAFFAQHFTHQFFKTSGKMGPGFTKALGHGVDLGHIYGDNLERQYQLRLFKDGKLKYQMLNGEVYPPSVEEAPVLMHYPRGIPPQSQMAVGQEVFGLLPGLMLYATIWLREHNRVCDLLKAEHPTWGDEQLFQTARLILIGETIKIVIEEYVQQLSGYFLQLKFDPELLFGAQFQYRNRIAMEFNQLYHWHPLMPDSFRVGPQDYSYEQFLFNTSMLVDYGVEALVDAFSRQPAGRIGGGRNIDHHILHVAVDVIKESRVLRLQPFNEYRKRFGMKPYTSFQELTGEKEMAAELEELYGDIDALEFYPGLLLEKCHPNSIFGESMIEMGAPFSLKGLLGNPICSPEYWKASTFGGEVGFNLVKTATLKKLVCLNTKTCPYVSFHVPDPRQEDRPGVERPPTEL
T2 sequence (P42330 whole entry): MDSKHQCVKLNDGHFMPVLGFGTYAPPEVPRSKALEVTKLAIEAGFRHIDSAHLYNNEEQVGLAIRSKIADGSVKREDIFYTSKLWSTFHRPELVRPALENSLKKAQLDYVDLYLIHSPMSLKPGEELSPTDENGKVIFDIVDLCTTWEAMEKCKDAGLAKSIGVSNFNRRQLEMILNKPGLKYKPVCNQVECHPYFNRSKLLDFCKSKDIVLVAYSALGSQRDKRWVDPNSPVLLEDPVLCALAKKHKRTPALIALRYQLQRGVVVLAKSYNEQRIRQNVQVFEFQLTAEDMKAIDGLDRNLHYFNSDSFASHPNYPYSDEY
COX-2, sequence (Q05769 18-604 limits assumed): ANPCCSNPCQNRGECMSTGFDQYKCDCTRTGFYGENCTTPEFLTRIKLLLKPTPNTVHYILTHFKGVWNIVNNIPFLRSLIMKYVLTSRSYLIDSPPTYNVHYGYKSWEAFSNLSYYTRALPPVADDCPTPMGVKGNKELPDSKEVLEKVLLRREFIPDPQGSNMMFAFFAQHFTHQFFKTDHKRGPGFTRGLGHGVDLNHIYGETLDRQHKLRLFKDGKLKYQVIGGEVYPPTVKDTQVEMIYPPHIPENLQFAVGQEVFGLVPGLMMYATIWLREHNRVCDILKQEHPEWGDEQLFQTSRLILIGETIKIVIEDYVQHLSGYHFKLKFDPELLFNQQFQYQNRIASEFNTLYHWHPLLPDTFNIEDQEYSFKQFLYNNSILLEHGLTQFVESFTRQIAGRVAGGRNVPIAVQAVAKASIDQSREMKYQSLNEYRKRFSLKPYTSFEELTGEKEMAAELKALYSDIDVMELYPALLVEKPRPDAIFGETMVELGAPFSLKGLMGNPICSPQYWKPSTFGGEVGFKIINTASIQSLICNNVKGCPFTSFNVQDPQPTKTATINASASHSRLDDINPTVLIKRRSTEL
AKR1C1, sequence (Q04828 whole entry, looked up): as the sequence (P52895 whole entry) above, with V38T, H47R, V54L, S87C, M151V, H170R, L172Q counted along it

Structure (SMILES)	IC50 (AKR1C2 [1])	IC50 (AKR1C3 [2]; [7])	other results
CCC(C(=O)O)c1ccc2cc(OC)ccc2c1 (racemic) [LM5750(±) 8, 2-(6-Methoxynaphthalen-2-yl)butanoic Acid]	7.6 ± 0.95 µM		IC50 (AKR1C3 [2]; S-tetralol oxidation): 0.12 µM; inhibitory activity on COX-2 (COX-2; maximum concentration of arachidonic acid tested as substrate (10 μM)): no inhibitory activity
CCc1ccc2cc(C(C)C(=O)O)ccc2c1 (racemic) [LM5751(±) 2, 2-(6-Ethylnaphthalen-2-yl)propanoic Acid]	1.9 ± 0.11 µM	0.12 ± 0.0075 µM	
CSc1ccc2cc(C(C)C(=O)O)ccc2c1 (racemic) [LM5752(±) 4, 2-(6-(Methylthio)naphthalen-2-yl)propanoic Acid]	1.5 ± 0.14 µM		IC50 (AKR1C3 [2]; S-tetralol oxidation): 0.06 µM; increase in the inhibitory potency for AKR1C3 (AKR1C3 [2]; over naproxen): 3 fold
CCOc1ccc2cc(C(C)C(=O)O)ccc2c1 (racemic) [LM5753(±) 3, 2-(6-Ethoxynaphthalen-2-yl)propanoic Acid]	2.4 ± 0.24 µM	0.1 ± 0.0076 µM	
CC(C(=O)O)c1ccc2cc([S+](C)[O-])ccc2c1 (racemic) [LM5754(±) 5, 2-(6-(Methylsulfinyl)naphthalen-2-yl)propanoic Acid]	6.3 ± 0.35 µM		
CC(C(=O)O)c1ccc2cc(S(C)(=O)=O)ccc2c1 (racemic) [LM5754(±) 6, 2-(6-(Methylsulfonyl)naphthalen-2-yl)propanoic Acid]	3 ± 0.14 µM		
CCC(C(=O)NS(C)(=O)=O)c1ccc2cc(OC)ccc2c1 (racemic) [LM5885 (±) 7, 2-(6-Methoxynaphthalen-2-yl)-N-(methylsulfonyl)butanamide]	34 µM		
CSc1ccc2cc([C@@H](C)C(=O)O)ccc2c1 [(R)-4a, 2(R)-(6-(methylthio)naphthalen-2-yl)propanoic acid]	4.35 ± 0.61 µM	0.05 ± 0.0015 µM	
COc1ccc2cc(CC(=O)O)ccc2c1 [DesmethylNaproxen 10, 2-(6-methoxynaphthalen-2-yl)acetic acid]	19 ± 3.7 µM	0.65 ± 0.11 µM	
COc1ccc2cc(C(C)(C)C(=O)O)ccc2c1 [DimethylNaproxen 9, 2-(6-methoxynaphthalen-2-yl)-2-methylpropanoic acid]	1.32 µM	0.27 µM	Ratio IC50 value (AKR1C2/AKR1C3) (AKR1C3 [2]; selectivity for AKR1C3 over AKR1C2, Table 1): 5
CC[C@@H](C(=O)O)c1ccc2cc(OC)ccc2c1 [LM5750B 8a, 2(R)-(6-methoxynaphthalen-2-yl)butanoic acid]	46.4 µM and 48.1 µM	0.11 ± 0.01 µM	Ki (AKR1C3 [3]): 0.75 µM; IC50 (COX-1; arachidonic acid as substrate): > 100 µM; inhibition at 100 µM (COX-1; [8]): < 20%; inhibition of AKR1C2 (AKR1C2 [4]): did not display any significant inhibition; IC50 (AKR1C1): 50 µM; Ki (AKR1C3 [2]; E.NADP+.I complex, read-out: Ki, competitive inhibition of AKR1C3 catalyzed oxidation of S-tetralol): 0.031 µM; preference for the E.NADP+ complex (AKR1C3 [2]; over E.NADPH complex): 20 fold; pattern of AKR1C3 inhibition (AKR1C3 [2]; oxidation of S-tetralol): competitively inhibited; production of 3H-testosterone glucuronide (LNCaP-AKR1C3 cells [5]): significantly inhibited; Δ4-AD mediated increase in PSA expression (LNCaP-AKR1C3 cells [6]): inhibited
COc1ccc2cc([C@@H](C)C(=O)O)ccc2c1 [R-Naproxen (1a), reference compound]	2.75 µM		inhibition of COX-1 activity (COX-1; [8]): less than 20%; IC50 (COX-2; Table 2): > 25 µM
COc1ccc2cc([C@H](C)C(=O)O)ccc2c1 [S-Naproxen (1), (S)-2-(6-methoxynaphthalen-2-yl)propanoic acid, reference compound]	1.26 ± 0.15 µM		
